Like-named read-outs stand apart in the source and are kept apart here.

The test system of data set [1] is SU-DHL-6. Nature of the data set: Cell death of other cancer cell lines: SU-DHL-6. In kind it is cell-based. The following applies: Homo sapiens; SU-DHL-6, Diffuse large B cell lymphoma. On the procedure:
(§1) The PROTACs prepared herein were tested for their use in other cancer cell lines to determine activity in multiple different types of cancer.

In data set [2] the target is T1, Mdm2 (Homo sapiens, UniProt Q00987). Nature of the data set: In-Cell Western, mut p53 MDA-MB-231 cell line. In kind it is cell-based. More on the design: endogenous in cells; host or cells: MCF7 (A8); MDA-MB-231 (A9). The following applies: mutant p53 MDA-MB-231. On the procedure: Cells were seeded at decreasing cell number from 15K cells to 2K cells. The Mdm2 primary antibody was tested at 1:200 and 1:300 dilution. The secondary antibody conjugated to IRDye800CW was used with 1:800 dilution, and CellTag 700 Stain was used at 1:1000 dilution as manufacture recommended. The linearity of cell number versus signal was generated with Prism. The signal over background ratio was also calculated.
The potential PROTACs were evaluated in the wt p53 MCF7 cell line and in the mut p53 MDA-MB-231 cell line. Importantly these were compared to MD-224, which was recently reported to potently degrade Mdm2 in RS4; 11 leukemia cells (Li et al., 2019). Assay linearity was performed confirming a strong 4-fold signal to noise in the assay. A series of bi-functional molecules were then treated and evaluated for protein level in the assay over time from 2 h-48 h. […] In this wt p53 cancer cell line the stabilization of p53 (FIG. 15B), and subsequent p53-mediated transcriptional upregulation of Mdm2 make it difficult to observe degradation. […] These compounds were evaluated in the mutant p53 cancer cells. […] In this cell line, it takes approximately 16-24 h to detect the degradation. […] The difference in the molecules is that MD-224 utilizes a CRBN recruiting ligand.
Target sequence in this assay (Q00987 whole entry): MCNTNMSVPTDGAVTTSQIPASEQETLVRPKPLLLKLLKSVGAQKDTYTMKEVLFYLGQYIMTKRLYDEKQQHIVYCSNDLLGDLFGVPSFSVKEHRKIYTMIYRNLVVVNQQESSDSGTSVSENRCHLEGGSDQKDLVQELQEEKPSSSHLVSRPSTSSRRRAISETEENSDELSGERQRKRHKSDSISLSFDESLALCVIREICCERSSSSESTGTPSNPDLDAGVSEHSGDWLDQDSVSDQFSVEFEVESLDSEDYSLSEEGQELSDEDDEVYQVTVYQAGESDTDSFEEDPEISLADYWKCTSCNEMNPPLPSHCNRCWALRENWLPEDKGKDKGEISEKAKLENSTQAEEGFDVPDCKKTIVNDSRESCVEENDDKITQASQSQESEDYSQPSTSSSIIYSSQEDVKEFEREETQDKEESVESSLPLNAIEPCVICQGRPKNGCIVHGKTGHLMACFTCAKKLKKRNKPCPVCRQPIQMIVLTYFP

Data set [3] relates to PC9. Nature of the data set: Cell death of other cancer cell lines: PC9. Type of data set: cell-based. The following applies: Homo sapiens, PC-9; PC9, Lung adenocarcinoma. The method, then:
as §1

Data set [4] concerns the target T1, Mdm2. Nature of the data set: Mdm2 HTRF binding assay (Table 2). The source says: An HTRF binding assay was developed using a biotinylated peptide containing the Mdm2-binding domain of p53 and a recombinant GST-tagged N-terminus of Mdm2 containing the p53-binding domain. HTRF is a proximity-based fluorescence energy transfer (FRET) assay that takes advantage of the unique time-resolved fluorescence of the lanthanide chelates, such as terbium and europium. HTRF IC50 values are provided for all key compounds (FIG. 13C, FIG. 19B, and Table 2).
Target sequence in this assay (Q00987 26-109 limits assumed): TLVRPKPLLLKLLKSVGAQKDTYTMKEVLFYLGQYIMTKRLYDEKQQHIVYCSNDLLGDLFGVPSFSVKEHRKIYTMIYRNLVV

The test system of data set [5] is Ramos. Nature of the data set: Cell death of other cancer cell lines: Ramos. The following applies: Homo sapiens, Burkitt lymphoma. Type of data set: cell-based. The method, then: as §1
Data set [6] in a line: In vivo tolerability, nude mice. The arrangement: species or system mouse. Particulars: YX-02-030 50 mg/kg IP, YX-02-228 30 mg/kg IP, once daily. The method, then:
FIGS. 25A & 25B show the in vivo tolerability tests conducted with the 2 lead Mdm2 PROTACs to evaluate tolerated doses and effects on normal tissues. Nude mice were treated with Mdm2 PROTACs, YX-02-030 (50 mg/kg; IP) and YX-02-228 (30 mg/kg; IP) once daily for 14 days. […] Fresh, surgically-resected tumor from five TNBC patients was obtained, and 80% were from Black/African American patients.
In vivo tolerability tests were conducted with the 2 lead Mdm2 PROTACs to evaluate tolerated doses and effects on normal tissues. Nude mice were treated with Mdm2 PROTACs, YX-02-030 (50 mg/kg; IP) and YX-02-228 (30 mg/kg; IP) once daily for 8 days.

For data set [7], the system named is SUP-T1. Nature of the data set: Cell death of other cancer cell lines: SUP-T1. Type of data set: cell-based. Particulars: Homo sapiens; SUP-T1, T-ALL. On the procedure: as §1
The subject of data set [8] is H1299. Nature of the data set: Cell death of other cancer cell lines: H1299. Particulars: Homo sapiens, NCI-H1299; H1299, Lung adenocarcinoma. Type of data set: cell-based. On the procedure:
as §1

Data set [9] relates to Hut-78. Nature of the data set: Cell death of other cancer cell lines: Hut-78. Type of data set: cell-based. Particulars: Homo sapiens, HuT78; Hut-78, T cell lymphoma. On the procedure: as §1
Data set [10] relates to KPCA. Nature of the data set: Cell death of other cancer cell lines: KPCA. Type of data set: cell-based. The following applies: Ovarian, Mouse. The method, then: as §1
Data set [11] relates to SEM cells. Nature of the data set: Cell death of other cancer cell lines: SEM. In kind it is cell-based. Particulars: Homo sapiens, B-ALL. The method, then: as §1
The test system of data set [12] is MOLT1. Nature of the data set: Cell death of other cancer cell lines: MOLT1. In kind it is cell-based. The following applies: Homo sapiens; MOLT1, T-ALL. The method, then: as §1
In data set [13] the test system is HH. Nature of the data set: Cell death of other cancer cell lines: HH. In kind it is cell-based. Particulars: Homo sapiens, T cell lymphoma. The method, then:
as §1

Data set [14] has as its system mut p53 MDA-MD-231 cells. Nature of the data set: Live cell count with CellTag700 Stain in ICW format. The following applies: after 24 h and 48 h treatment. The method, then:
Cells are seeded in 96 half area well plates (black clear bottom) and cultured overnight. Then they are treated with compounds, fixed with 4% paraformaldehyde for 20 minutes, and permeabilized in 0.1% Triton. They are then treated with the primary antibody and secondary antibody conjugated to IRDye800CW or treated with CellTag 700 Stain. The plates are then scanned on the OdysseyCLX and the data processed to provide a dose response curve.
Since genetic deletion of Mdm2 induces p73 and induces apoptosis in p53 mutant and deficient cancer cells, YX-02-030 and YX-02-228 were evaluated for their effect on cell viability. First, the CellTag700 Stain was utilized to count the number of live cells in the ICW format.

Data set [15] deals with T2, human cereblon (CRBN) complex (Homo sapiens, UniProt Q96SW2).
T2 construct: purchased R & D systems
T2 sequence (Q96SW2 whole entry): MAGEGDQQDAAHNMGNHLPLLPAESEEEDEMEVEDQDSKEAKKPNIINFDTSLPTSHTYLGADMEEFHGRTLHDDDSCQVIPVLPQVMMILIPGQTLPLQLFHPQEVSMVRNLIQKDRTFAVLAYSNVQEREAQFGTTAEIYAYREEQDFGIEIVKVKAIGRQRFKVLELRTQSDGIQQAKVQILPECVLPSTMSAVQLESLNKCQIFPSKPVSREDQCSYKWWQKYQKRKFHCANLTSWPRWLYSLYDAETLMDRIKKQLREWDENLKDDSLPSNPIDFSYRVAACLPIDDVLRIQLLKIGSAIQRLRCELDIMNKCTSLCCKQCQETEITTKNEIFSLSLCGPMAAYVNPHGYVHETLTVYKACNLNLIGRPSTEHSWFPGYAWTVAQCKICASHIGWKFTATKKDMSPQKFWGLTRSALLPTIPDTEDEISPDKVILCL
T2 sequence (Q16531 whole entry partner): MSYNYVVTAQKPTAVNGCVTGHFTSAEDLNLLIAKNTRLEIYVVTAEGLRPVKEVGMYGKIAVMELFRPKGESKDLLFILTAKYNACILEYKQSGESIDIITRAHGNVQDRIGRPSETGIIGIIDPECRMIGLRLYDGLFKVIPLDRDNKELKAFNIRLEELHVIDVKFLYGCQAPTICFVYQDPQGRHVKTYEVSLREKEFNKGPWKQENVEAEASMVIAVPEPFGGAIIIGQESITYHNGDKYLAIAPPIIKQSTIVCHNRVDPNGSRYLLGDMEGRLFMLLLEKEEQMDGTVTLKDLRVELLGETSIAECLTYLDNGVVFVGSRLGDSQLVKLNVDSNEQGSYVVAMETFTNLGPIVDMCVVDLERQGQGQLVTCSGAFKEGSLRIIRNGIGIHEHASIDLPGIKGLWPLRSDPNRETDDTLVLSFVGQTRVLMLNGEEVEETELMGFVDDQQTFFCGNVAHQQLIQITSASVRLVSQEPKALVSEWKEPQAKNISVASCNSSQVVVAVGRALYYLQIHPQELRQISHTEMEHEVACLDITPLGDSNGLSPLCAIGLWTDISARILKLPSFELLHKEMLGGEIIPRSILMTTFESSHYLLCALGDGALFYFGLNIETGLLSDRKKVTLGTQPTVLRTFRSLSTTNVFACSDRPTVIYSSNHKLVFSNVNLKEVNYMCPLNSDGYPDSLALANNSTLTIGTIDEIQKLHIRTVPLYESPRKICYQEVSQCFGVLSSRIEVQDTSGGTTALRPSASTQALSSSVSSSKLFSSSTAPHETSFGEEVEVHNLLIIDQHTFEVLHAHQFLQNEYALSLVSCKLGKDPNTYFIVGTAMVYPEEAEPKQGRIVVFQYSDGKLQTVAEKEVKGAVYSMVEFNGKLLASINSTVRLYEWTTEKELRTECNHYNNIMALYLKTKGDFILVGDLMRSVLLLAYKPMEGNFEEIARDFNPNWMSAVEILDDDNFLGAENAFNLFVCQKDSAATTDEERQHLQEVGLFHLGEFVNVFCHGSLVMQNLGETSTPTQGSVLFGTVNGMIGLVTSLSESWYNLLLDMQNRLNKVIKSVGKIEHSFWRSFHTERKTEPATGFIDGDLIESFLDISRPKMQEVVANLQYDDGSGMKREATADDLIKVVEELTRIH
T2 sequence (Q13619 whole entry partner): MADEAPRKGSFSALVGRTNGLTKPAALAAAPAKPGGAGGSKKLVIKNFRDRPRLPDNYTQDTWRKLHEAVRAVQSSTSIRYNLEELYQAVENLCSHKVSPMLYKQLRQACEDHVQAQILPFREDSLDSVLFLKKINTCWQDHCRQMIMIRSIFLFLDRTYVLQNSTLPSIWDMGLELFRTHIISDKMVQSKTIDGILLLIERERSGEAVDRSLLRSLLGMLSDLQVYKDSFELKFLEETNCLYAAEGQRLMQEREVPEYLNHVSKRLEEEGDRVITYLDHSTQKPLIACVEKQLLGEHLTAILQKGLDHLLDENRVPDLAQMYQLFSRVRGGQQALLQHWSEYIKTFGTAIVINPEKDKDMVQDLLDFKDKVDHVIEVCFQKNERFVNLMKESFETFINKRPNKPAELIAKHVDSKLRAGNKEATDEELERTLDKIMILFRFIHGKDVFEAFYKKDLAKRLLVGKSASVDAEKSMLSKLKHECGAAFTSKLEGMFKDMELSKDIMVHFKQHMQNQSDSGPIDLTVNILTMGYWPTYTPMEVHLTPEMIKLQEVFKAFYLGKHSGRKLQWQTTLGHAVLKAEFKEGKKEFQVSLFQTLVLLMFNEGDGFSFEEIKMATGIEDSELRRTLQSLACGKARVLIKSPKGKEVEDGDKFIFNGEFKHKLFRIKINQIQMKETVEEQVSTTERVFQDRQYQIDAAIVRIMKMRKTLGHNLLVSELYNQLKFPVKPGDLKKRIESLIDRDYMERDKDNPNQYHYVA
T2 sequence (P62877 whole entry partner): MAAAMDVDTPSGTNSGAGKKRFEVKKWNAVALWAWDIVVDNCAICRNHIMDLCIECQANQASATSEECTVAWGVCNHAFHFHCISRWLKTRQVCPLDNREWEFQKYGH
Nature of the data set: HTRF binding assay for Cereblon (Table 2). An excerpt:
Biochemical assays in 384-well format have established to assess the binding of newly synthesized PROTACs to the appropriate E3 ligase using HTRF technology. In these assays an anti-HIS antibody conjugated to terbium was used as the donor fluor, and either a Cy5 labeled small molecule probe, or a biotinylated peptide that is bound to a streptavidin acceptor.
Cereblon: Recombinant human cereblon (CRBN) complex, including CUL4A, RBX1, DDB1 and CRBN is purchased from R & D systems. This four-member protein complex has an N-terminal HIS tag on the CUL4A subunit. The CRBN complex is diluted in assay buffer containing anti-HIS-Tb Cryptate Gold (CisBio) and is added to low volume 384-well plates. Test compounds in 100% DMSO are added to the plates followed by the Cy5-labeled lenolidamide probe. After 1 hour the HTRF signal is measured on the Envision. Data are normalized to % inhibition. The typical signal-to-noise is 5:1. Bi-functional molecules containing the Cereblon ligands are tested in TABLE 2 (see YX-02-041).

The test system of data set [16] is RS4; 11. Nature of the data set: Cell death of other cancer cell lines: RS4; 11. In kind it is cell-based. Particulars: Homo sapiens, 11, B-ALL. On the procedure:
as §1

For the compound `CCOc1cc(C(C)(C)C)ccc1C1=N[C@](C)(c2ccc(Cl)cc2)[C@](C)(c2ccc(Cl)cc2)N1C(=O)N1CCN(CC(=O)NCCOCCOCCOCC(=O)N[C@H](C(=O)N2C[C@H](O)C[C@H]2C(=O)NCc2ccc(-c3scnc3C)cc2)C(C)(C)C)CC1` (racemic) [YX-02-030], the half-inhibitory concentration (IC50) in [1] was 3.6 µM; in [3], 4.5 µM; in data set [4] it was 0.014 µM; in [5] it was 3.1 µM; in data set [7], 5.7 µM; in data set [8], 4.2 µM. Also, the IC50 in [9] is 9 µM; in data set [10] it was 2.9 µM; in [11], 3.2 µM; in [12], 2.6 µM; in data set [13], 6.3 µM; in data set [15], more than 10 µM. Further, the IC50 in data set [16] stood at 1.9 µM. In [2], the Mdm2 degradation result was “degrade Mdm2”. The blood counts entry in [6] was “no significant change”. Also, the body weight entry in data set [6] is “no significant change in body weight”. In addition, in data set [6], the “clinical observations for spleen and bone marrow” value is recorded as “no adverse clinical observations”. Further, in data set [14], the “cytotoxic effect, number of live cells” value is recorded as “potent cytotoxic effects”.

As to `CCOc1cc(C(C)(C)C)ccc1C1=N[C@](C)(c2ccc(Cl)cc2)[C@](C)(c2ccc(Cl)cc2)N1C(=O)N1CCN(CC(=O)NCCCNC(=O)COc2ccc3c(c2)CN(C(=O)[C@H](NC(=O)[C@@H](C)NC)C(C)(C)C)[C@@H](C(=O)N[C@H]2CCCc4ccccc42)C3)CC1` [YX-02-228, (R)-7-(2-((3-(2-(4-((4R,5S)-2-(4-(tert-butyl)-2-ethoxyphenyl)-4,5-bis(4-chlorophenyl)-4,5-dimethyl-4,5-dihydro-1H-imidazole-1-carbonyl)piperazin-1-yl)acetamido)propyl)amino)-2-oxoethoxy)-2-((R)-3,3-dimethyl-2-((R)-2-(methylamino)propanamido)butanoyl)-N-((S)-1,2,3,4-tetrahydronaphthalen-1-yl)-1,2,3,4-tetrahydroisoquinoline-3-carboxamide], the IC50 came out at 2.9 µM in data set [1]; 4.6 µM in data set [3]; 0.013 µM in data set [4] (read-out: Mdm2 HTRF IC50); 5.5 µM in data set [5]; 6 µM in data set [7]; 5.3 µM in [8]. Further, the IC50 was 8.8 µM in data set [9]; 3.4 µM in data set [10]; 4.2 µM in [11]; 2.7 µM in [12]; 5.5 µM in data set [13]; more than 10 µM in data set [15]. In addition, in data set [16], the half-inhibitory concentration (IC50) turned out to be 2.5 µM. Besides, the Mdm2 degradation entry in data set [2] is listed as “degrade Mdm2”. The blood counts entry in [6] is on record as “no significant change”. In addition, the body weight result in data set [6] is listed as “no significant change in body weight”. In [6], the “clinical observations for spleen and bone marrow” value was “no adverse clinical observations”. Besides, in data set [14], the “cytotoxic effect, number of live cells” value is listed as “potent cytotoxic effects”.

The values are drawn from patent publication US20260053931A1, “MDM2 TARGETING PROTACS” (THE WISTAR INSTITUTE OF ANATOMY AND BIOLOGY, priority 2023, published 2026).
